What was measured:
OCI-Ly3 = experiment: Combination study, ATPLite 72 h, dose matrix (Synergy Score, CI50); settings: combination with Compound 1; OCI-Ly3; 72 h
DOHH-2 = experiment: as above; settings: combination with Compound 1, 72 h
SU-DHL-10-epst = experiment: as above; settings: combination with Compound 1, 72 h
Procedure: (§1) Cells are thawed from a liquid nitrogen preserved state. Once cells have been expanded and divide at their expected doubling times, screening begins. Cells are seeded in growth media in either black 1536-well or 384-well tissue culture treated plates. Cells are then equilibrated in assay plates via centrifugation and placed in incubators attached to the Dosing Modules at 37° C. for 24 hours before treatment. […] These Tzero (To) plates are read using ultra-sensitive luminescence on Envision plate readers (Perkin Elmer). Treated assay plates are incubated with compound for 72 hours. After 72 hours, plates are developed for endpoint analysis using ATPLite. All data points are collected via automated processes, quality controlled and analyzed using Zalicus software.
(§2) The measure of effect in the experiment can be the inhibition of cellular response relative to the untreated level (vehicle alone). […] The inhibition ranges from 0% at the untreated level to 100% when T=0. Inhibition levels are negative for agents that actually increase levels.
(§3) Growth Inhibition (GI) is used as a measure of cell viability. […] A GI reading of 100% represents complete growth inhibition—T72 compound-treated and T0 vehicle signals are matched. […] A GI reading of 200% represents complete death of all cells in the culture well. Compounds reaching an activity plateau of GI 200% are considered cytotoxic. GI is calculated by applying the following test and equation:
(§4) Combination analysis data were collected in a 6×6 dose matrix. Synergy is calculated by comparing a combination's response to those of its single compound, against the drug-with-itself dose-additive reference model. Deviations from dose additivity may be assessed visually on an isobologram or numerically with a Combination Index (CI). […] Additive effect is CI=1.0. […] Antagonistic effect is CI>1.0.
(§5) To measure combination effects in excess of Loewe additivity, a scalar measure to characterize the strength of synergistic interaction termed the Synergy Score is devised. The Synergy Score is calculated as:
(§6) The fractional inhibition for each component agent and combination point in the matrix is calculated relative to the median of all vehicle-treated control wells. The Synergy Score equation integrates the experimentally-observed activity volume at each point in the matrix in excess of a model surface numerically derived from the activity of the component agents using the Loewe model for additivity. Additional terms in the Synergy Score equation (above) are used to normalize for various dilution factors used for individual agents and to allow for comparison of synergy scores across an entire experiment. The inclusion of positive inhibition gating or an Idata multiplier removes noise near the zero effect level, and biases results for synergistic interactions at that occur at high activity levels.
(§7) Loewe Volume (Loewe Vol) is used to assess the overall magnitude of the combination interaction in excess of the Loewe additivity model. Loewe Volume is particularly useful when distinguishing synergistic increases in a phenotypic activity (positive Loewe Volume) versus synergistic antagonisms (negative Loewe Volume). […] This model defines additivity as a non-synergistic combination interaction where the combination dose matrix surface should be indistinguishable from either drug crossed with itself. The calculation for Loewe additivity is:

GRANTA-519 = experiment: as above; settings: combination with Compound 1
NCI-H929 = experiment: as above; settings: combination with Compound 1
Farage = experiment: as above; settings: combination with Compound 1; Farage; 72 h
SU-DHL-4-epst = experiment: as above; settings: combination with Compound 1, 72 h
Procedure: as §1, §2, §3, §4, §5, §6, §7

Mino = experiment: as above; settings: combination with Compound 1
WSU-NHL = experiment: as above; settings: combination with Compound 1, 72 h
TMD8 = experiment: as above; settings: combination with Compound 1; TMD8; 72 h
HBL-1 = experiment: as above; settings: combination with Compound 1, 72 h
RPMI-8226 = experiment: as above; settings: combination with Compound 1
HH = experiment: as above; type: cell-based; settings: combination with Compound 1
Procedure: The method is described as follows.
Additive effect is CI=1.0. […] Antagonistic effect is CI>1.0.
The Synergy Score is calculated as: […]

KARPAS-299 = experiment: as above; settings: combination with Compound 1
OCI-Ly7 = experiment: as above; settings: combination with Compound 1, 72 h
Jeko-1 = experiment: as above; settings: combination with Compound 1
RL = experiment: as above; settings: combination with Compound 1, 72 h
KARPAS-422 = experiment: as above; settings: combination with Compound 1, 72 h
U-2932 = experiment: as above; settings: combination with Compound 1, 72 h
OMP-2 = experiment: as above; settings: combination with Compound 1; OPM-2
[1] = as above; settings: combination with Compound 1; OPM-2

Compound: COc1ccc(-c2ccc3c(N4CCOC[C@@H]4C)nc(N4CCOC[C@@H]4C)nc3n2)cc1CO [AZD 8055]
- CI50 growth inhibition (OCI-Ly3): S (S=0.01 to <0.5)
- CI50 inhibition (OCI-Ly3): T (T=0.5 to <0.7)
- Synergy Score growth inhibition (OCI-Ly3): A2 (A2=1 to <3)
- Synergy Score inhibition (OCI-Ly3): A1 (A1=0.0001 to <1)
- CI50 growth inhibition (DOHH-2): S (S=0.01 to <0.5)
- CI50 inhibition (DOHH-2): S (S=0.01 to <0.5)
- Synergy Score growth inhibition (DOHH-2): A3 (A3=>3)
- Synergy Score inhibition (DOHH-2): A3 (A3=>3)
- CI50 growth inhibition (SU-DHL-10-epst): S (S=0.01 to <0.5)
- CI50 inhibition (SU-DHL-10-epst): S (S=0.01 to <0.5)
- Synergy Score growth inhibition (SU-DHL-10-epst): A3 (A3=>3)
- Synergy Score inhibition (SU-DHL-10-epst): A3 (A3=>3)
- CI50 growth inhibition (GRANTA-519): T (T=0.5 to <0.7)
- CI50 inhibition (GRANTA-519): U (U=0.7 to <1)
- Synergy Score growth inhibition (GRANTA-519): A2 (A2=1 to <3)
- Synergy Score inhibition (GRANTA-519): A1 (A1=0.0001 to <1)
- CI50 growth inhibition (NCI-H929): W (W=≥1)
- CI50 inhibition (NCI-H929): T (T=0.5 to <0.7)
- Synergy Score growth inhibition (NCI-H929): A3 (A3=>3)
- Synergy Score inhibition (NCI-H929): A2 (A2=1 to <3)
- CI50 growth inhibition (Farage): S (S=0.01 to <0.5)
- CI50 inhibition (Farage): S (S=0.01 to <0.5)
- Synergy Score growth inhibition (Farage): A3 (A3=>3)
- Synergy Score inhibition (Farage): A3 (A3=>3)
- CI50 growth inhibition (SU-DHL-4-epst): T (T=0.5 to <0.7)
- CI50 inhibition (SU-DHL-4-epst): S (S=0.01 to <0.5)
- Synergy Score growth inhibition (SU-DHL-4-epst): A3 (A3=>3)
- Synergy Score inhibition (SU-DHL-4-epst): A3 (A3=>3)
- CI50 growth inhibition (Mino): U (U=0.7 to <1)
- CI50 inhibition (Mino): S (S=0.01 to <0.5)
- Synergy Score growth inhibition (Mino): A2 (A2=1 to <3)
- Synergy Score inhibition (Mino): A1 (A1=0.0001 to <1)
- CI50 growth inhibition (WSU-NHL): T (T=0.5 to <0.7)
- CI50 inhibition (WSU-NHL): S (S=0.01 to <0.5)
- Synergy Score growth inhibition (WSU-NHL): A3 (A3=>3)
- Synergy Score inhibition (WSU-NHL): A3 (A3=>3)
- CI50 growth inhibition (TMD8): S (S=0.01 to <0.5)
- CI50 inhibition (TMD8): S (S=0.01 to <0.5)
- Synergy Score growth inhibition (TMD8): A3 (A3=>3)
- Synergy Score inhibition (TMD8): A3 (A3=>3)
- CI50 growth inhibition (HBL-1): S (S=0.01 to <0.5)
- CI50 inhibition (HBL-1): T (T=0.5 to <0.7)
- Synergy Score growth inhibition (HBL-1): A3 (A3=>3)
- Synergy Score inhibition (HBL-1): A1 (A1=0.0001 to <1)
- CI50 growth inhibition (RPMI-8226): U (U=0.7 to <1)
- CI50 inhibition (RPMI-8226): W (W=≥1)
- Synergy Score growth inhibition (RPMI-8226): A2 (A2=1 to <3)
- Synergy Score inhibition (RPMI-8226): A1 (A1=0.0001 to <1)
- CI50 growth inhibition (HH): S (S=0.01 to <0.5)
- CI50 inhibition (HH): S (S=0.01 to <0.5)
- Synergy Score growth inhibition (HH): A3 (A3=>3)
- Synergy Score inhibition (HH): A2 (A2=1 to <3)
- CI50 growth inhibition (KARPAS-299): W (W=≥1)
- CI50 inhibition (KARPAS-299): U (U=0.7 to <1)
- Synergy Score growth inhibition (KARPAS-299): A1 (A1=0.0001 to <1)
- Synergy Score inhibition (KARPAS-299): A1 (A1=0.0001 to <1)
- CI50 growth inhibition (OCI-Ly7): S (S=0.01 to <0.5)
- CI50 inhibition (OCI-Ly7): T (T=0.5 to <0.7)
- Synergy Score growth inhibition (OCI-Ly7): A3 (A3=>3)
- Synergy Score inhibition (OCI-Ly7): A2 (A2=1 to <3)
- CI50 growth inhibition (Jeko-1): S (S=0.01 to <0.5)
- CI50 inhibition (Jeko-1): T (T=0.5 to <0.7)
- Synergy Score growth inhibition (Jeko-1): A3 (A3=>3)
- Synergy Score inhibition (Jeko-1): A2 (A2=1 to <3)
- CI50 growth inhibition (RL): U (U=0.7 to <1)
- CI50 inhibition (RL): U (U=0.7 to <1)
- Synergy Score growth inhibition (RL): A2 (A2=1 to <3)
- Synergy Score inhibition (RL): A2 (A2=1 to <3)
- CI50 growth inhibition (KARPAS-422): S (S=0.01 to <0.5)
- CI50 inhibition (KARPAS-422): S (S=0.01 to <0.5)
- Synergy Score growth inhibition (KARPAS-422): A2 (A2=1 to <3)
- Synergy Score inhibition (KARPAS-422): A2 (A2=1 to <3)
- CI50 growth inhibition (U-2932): S (S=0.01 to <0.5)
- CI50 inhibition (U-2932): U (U=0.7 to <1)
- Synergy Score growth inhibition (U-2932): A2 (A2=1 to <3)
- Synergy Score inhibition (U-2932): A2 (A2=1 to <3)
- CI50 inhibition (OMP-2): W (W=≥1)
- Synergy Score growth inhibition (OMP-2): A2 (A2=1 to <3)
- Synergy Score inhibition (OMP-2): A1 (A1=0.0001 to <1)
- CI50 growth inhibition [1]: U (U=0.7 to <1)
